Reference: ChEMBL document CHEMBL5223122, “Discovery and preclinical evaluations of GST-HG131, a novel HBV antigen inhibitor for the treatment of chronic hepatitis B infection” (Bioorg Med Chem Lett, 2022)
Calls of active or inactive are those of the source. No cut-off for these calls is given here.

Legend:
[1] = system: Hepatitis B virus; test: Antiviral activity against HBV infected in human HepG2.2.15 assessed as HBV DNA reduction by qPCR method; format: functional, organism-based
[2] = system: Hepatitis B virus; test: Antiviral activity against HBV infected in human HepG2.2.15 assessed as reduction on HBsAg level by ELISA; format: functional, organism-based
[3] = Clearance in C57BL/6 mouse at 1 mg/kg, iv; format: ADME, organism-based; conditions: in vivo
[4] = Volume of distribution in steady state in C57BL/6 mouse at 1 mg/kg, iv; format: ADME, organism-based; conditions: in vivo, read-out: Vdss
[5] = Half life in C57BL/6 mouse at 1 mg/kg, iv; format: ADME, organism-based; conditions: in vivo
[6] = Cmax in C57BL/6 mouse at 2 mg/kg, po; format: ADME, organism-based; parameters: dose 2 mg/kg, route po; conditions: in vivo
[7] = Oral bioavailability in C57BL/6 mouse at 2 mg/kg; format: ADME, organism-based; conditions: in vivo
[8] = Clearance in Sprague-Dawley rat at 1 mg/kg, iv; format: ADME, organism-based; conditions: in vivo
[9] = Volume of distribution in steady state in Sprague-Dawley rat at 1 mg/kg, iv; format: ADME, organism-based; conditions: in vivo, read-out: Vdss
[10] = Half life in Sprague-Dawley rat at 1 mg/kg, iv; format: ADME, organism-based; conditions: in vivo
[11] = Cmax in Sprague-Dawley rat at 2 mg/kg, po; format: ADME, organism-based; parameters: dose 2 mg/kg, route po; conditions: in vivo
[12] = Oral bioavailability in Sprague-Dawley rat at 2 mg/kg; format: ADME, organism-based; conditions: in vivo
[13] = Clearance in Beagle dog at 1 mg/kg, iv; format: ADME, organism-based, Canis lupus familiaris; conditions: in vivo
[14] = Volume of distribution in steady state in Beagle dog at 1 mg/kg, iv; format: ADME, organism-based, Canis lupus familiaris; conditions: in vivo, read-out: Vdss
[15] = Half life in Beagle dog at 1 mg/kg, iv; format: ADME, organism-based, Canis lupus familiaris; conditions: in vivo
[16] = Cmax in Beagle dog at 3 mg/kg, po; format: ADME, organism-based, Canis lupus familiaris; parameters: dose 3 mg/kg, route po; conditions: in vivo
[17] = AUC (0-last) in Beagle dog at 3 mg/kg, po; format: ADME, organism-based, Canis lupus familiaris; parameters: dose 3 mg/kg, route po; conditions: in vivo
[18] = Oral bioavailability in Beagle dog at 3 mg/kg; format: ADME, organism-based, Canis lupus familiaris; conditions: in vivo
[19] = Apparent permeability across apical to basolateral side in human Caco-2 cells; format: ADME, cell-based
[20] = Apparent permeability across basolateral to apical side in human Caco-2 cells; format: ADME, cell-based
[21] = Efflux ratio of apparent permeability from basolateral to apical side over apical to basolateral side in human Caco-2 cells; format: ADME, cell-based
[22] = Protein binding in human plasma assessed as unbound fraction; format: ADME, cell-free
[23] = Protein binding in rat plasma assessed as unbound fraction; format: ADME, cell-free
[24] = Microsomal stability in mouse liver microsomes assessed as intrinsic clearance measured per mg of protein; format: ADME, Microsome; conditions: read-out: CLH
[25] = Microsomal stability in rat liver microsomes assessed as intrinsic clearance measured per mg of protein; format: ADME, Microsome; conditions: read-out: CLH
[26] = Microsomal stability in dog liver microsomes assessed as intrinsic clearance measured per mg of protein; format: ADME, Canis lupus familiaris, Microsome; conditions: read-out: CLH
[27] = Microsomal stability in cynomolgus monkey liver microsomes assessed as intrinsic clearance measured per mg of protein; format: ADME, Macaca fascicularis, Microsome; conditions: read-out: CLH
[28] = Microsomal stability in human liver microsomes assessed as intrinsic clearance measured per mg of protein; format: ADME, Microsome; conditions: read-out: CLH
[29] = molecular target: T1, CYP1A2 (Homo sapiens, UniProt P05177); test: Inhibition of CYP1A2 (unknown origin); format: ADME
T1 sequence (P05177 whole entry): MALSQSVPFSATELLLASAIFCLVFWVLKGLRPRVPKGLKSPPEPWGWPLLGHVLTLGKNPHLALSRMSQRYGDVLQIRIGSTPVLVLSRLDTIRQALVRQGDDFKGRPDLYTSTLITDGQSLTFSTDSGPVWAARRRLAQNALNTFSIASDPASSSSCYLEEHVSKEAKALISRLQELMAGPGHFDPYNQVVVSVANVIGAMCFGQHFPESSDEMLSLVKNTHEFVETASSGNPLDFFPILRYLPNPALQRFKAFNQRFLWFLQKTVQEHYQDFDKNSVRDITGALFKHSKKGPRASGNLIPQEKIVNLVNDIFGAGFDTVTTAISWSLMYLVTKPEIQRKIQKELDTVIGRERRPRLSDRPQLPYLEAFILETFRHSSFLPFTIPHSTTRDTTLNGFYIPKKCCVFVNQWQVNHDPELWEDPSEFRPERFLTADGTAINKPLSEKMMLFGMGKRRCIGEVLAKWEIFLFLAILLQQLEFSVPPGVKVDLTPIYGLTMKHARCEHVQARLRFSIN

[30] = molecular target: CYP2D6 (Homo sapiens, UniProt P10635); test: Inhibition of CYP2D6 (unknown origin); format: ADME
CYP2D6, sequence (P10635 whole entry): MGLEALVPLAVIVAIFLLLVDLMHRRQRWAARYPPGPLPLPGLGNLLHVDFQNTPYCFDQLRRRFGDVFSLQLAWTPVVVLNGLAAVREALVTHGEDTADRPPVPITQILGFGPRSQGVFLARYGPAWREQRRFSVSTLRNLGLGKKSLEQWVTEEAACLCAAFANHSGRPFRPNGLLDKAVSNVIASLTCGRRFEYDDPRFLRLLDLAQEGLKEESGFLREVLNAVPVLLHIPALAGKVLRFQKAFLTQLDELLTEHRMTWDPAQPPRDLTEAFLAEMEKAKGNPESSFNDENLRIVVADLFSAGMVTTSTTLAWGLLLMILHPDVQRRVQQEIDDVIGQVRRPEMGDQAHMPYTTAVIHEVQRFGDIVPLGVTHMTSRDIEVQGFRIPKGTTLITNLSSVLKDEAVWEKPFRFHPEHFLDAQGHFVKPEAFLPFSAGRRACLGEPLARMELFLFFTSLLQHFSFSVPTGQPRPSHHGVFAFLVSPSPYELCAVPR

[31] = molecular target: CYP2C19 (Homo sapiens, UniProt P33261); test: Inhibition of CYP2C19 (unknown origin); format: ADME
CYP2C19, sequence (P33261 whole entry): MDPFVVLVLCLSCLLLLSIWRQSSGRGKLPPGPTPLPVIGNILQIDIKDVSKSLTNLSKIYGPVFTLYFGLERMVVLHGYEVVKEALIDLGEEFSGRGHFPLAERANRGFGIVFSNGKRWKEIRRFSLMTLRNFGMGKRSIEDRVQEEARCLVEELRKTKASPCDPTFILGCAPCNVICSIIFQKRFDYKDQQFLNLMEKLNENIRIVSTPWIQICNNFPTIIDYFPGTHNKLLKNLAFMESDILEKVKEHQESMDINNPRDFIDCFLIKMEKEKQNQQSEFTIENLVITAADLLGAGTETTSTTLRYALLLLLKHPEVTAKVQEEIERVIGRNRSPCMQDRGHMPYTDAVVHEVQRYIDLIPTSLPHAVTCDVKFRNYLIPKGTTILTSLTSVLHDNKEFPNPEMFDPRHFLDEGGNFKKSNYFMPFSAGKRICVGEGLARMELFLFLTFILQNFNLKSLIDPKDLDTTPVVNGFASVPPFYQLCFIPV

[32] = molecular target: CYP2C9 (Homo sapiens, UniProt P11712); test: Inhibition of CYP2C9 (unknown origin); format: ADME
CYP2C9, sequence (P11712 whole entry): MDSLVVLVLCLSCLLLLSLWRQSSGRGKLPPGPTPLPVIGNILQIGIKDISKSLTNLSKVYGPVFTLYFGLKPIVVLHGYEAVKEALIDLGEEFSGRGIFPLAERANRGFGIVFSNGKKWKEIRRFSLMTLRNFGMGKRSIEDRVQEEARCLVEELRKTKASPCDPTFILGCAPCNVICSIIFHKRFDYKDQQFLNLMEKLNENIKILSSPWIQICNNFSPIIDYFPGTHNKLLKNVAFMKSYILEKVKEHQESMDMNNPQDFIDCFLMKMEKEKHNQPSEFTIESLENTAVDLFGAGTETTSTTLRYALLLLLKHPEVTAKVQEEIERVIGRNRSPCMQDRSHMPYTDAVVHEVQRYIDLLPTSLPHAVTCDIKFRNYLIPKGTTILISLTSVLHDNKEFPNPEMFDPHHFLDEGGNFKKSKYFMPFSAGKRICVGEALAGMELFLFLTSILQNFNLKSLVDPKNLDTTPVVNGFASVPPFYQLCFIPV

[33] = molecular target: CYP3A4 (Homo sapiens, UniProt P08684); test: Inhibition of CYP3A4 (unknown origin); format: ADME
CYP3A4, sequence (P08684 whole entry): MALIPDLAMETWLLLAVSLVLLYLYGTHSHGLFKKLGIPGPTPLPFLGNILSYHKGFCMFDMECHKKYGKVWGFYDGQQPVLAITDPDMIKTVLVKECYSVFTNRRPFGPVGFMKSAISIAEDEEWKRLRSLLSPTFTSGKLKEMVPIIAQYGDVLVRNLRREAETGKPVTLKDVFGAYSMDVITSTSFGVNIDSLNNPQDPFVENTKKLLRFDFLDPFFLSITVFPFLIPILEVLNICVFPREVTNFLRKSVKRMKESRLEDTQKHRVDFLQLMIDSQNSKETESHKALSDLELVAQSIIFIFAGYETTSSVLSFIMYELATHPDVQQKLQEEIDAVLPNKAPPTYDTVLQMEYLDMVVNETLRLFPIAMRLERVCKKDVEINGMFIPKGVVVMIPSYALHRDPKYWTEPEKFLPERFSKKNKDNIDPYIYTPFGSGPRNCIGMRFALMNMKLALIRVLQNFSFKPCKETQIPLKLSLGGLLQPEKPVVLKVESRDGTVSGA

[34] = molecular target: Voltage-gated inwardly rectifying potassium channel KCNH2 (Homo sapiens, UniProt Q12809); test: Inhibition of human ERG; format: toxicity
Voltage-gated inwardly rectifying potassium channel KCNH2, sequence (Q12809 whole entry): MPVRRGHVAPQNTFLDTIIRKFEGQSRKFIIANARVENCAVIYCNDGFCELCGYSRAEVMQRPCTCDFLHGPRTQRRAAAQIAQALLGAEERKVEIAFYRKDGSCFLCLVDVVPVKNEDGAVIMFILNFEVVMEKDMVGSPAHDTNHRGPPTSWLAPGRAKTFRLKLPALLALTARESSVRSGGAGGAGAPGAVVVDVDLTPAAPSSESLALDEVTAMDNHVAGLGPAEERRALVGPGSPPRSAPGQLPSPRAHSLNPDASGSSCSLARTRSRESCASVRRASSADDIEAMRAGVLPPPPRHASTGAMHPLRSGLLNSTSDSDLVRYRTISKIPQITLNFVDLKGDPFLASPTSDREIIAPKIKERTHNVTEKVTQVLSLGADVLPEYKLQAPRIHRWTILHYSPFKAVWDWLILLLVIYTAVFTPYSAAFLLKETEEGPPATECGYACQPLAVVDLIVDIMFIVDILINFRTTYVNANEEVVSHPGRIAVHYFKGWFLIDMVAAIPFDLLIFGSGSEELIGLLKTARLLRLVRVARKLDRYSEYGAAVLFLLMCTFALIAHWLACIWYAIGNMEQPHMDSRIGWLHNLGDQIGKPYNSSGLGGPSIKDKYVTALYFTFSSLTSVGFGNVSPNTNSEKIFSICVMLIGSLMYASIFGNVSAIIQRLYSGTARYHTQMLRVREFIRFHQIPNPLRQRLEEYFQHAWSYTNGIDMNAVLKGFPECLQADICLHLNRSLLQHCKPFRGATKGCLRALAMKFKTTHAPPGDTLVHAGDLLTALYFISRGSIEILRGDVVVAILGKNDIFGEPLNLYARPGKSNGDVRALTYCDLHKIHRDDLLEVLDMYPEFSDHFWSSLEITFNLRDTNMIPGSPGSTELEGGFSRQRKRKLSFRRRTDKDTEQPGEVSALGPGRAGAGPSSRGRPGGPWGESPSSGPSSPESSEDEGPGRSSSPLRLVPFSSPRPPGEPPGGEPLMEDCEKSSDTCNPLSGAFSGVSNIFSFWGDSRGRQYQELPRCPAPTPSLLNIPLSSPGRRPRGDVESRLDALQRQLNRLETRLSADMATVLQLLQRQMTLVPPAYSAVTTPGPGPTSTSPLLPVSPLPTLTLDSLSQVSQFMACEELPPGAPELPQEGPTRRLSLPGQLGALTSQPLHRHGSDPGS

[35] = molecular target: Cytochrome P450 3A4 (Homo sapiens, UniProt P08684); test: Induction of CYP3A4 (unknown origin); format: ADME
Cytochrome P450 3A4, sequence (P08684 whole entry): as the sequence (P08684 whole entry) above

[36] = system: Hepatitis B virus; test: Antiviral activity against HBV infected in human primary hepatocytes assessed as reduction on HBsAg level by ELISA; format: functional, organism-based; conditions: Hepatocyte
[37] = system: Hepatitis B virus; test: Antiviral activity against HBV infected in human primary hepatocytes assessed as reduction on HBeAg level by ELISA; format: functional, organism-based; conditions: Hepatocyte
[38] = system: Hepatitis B virus; test: Antiviral activity against HBV infected in human primary hepatocytes assessed as HBV DNA reduction at 20 uM by qPCR method; format: functional, Primary hepatocyte; parameters: scale not given: the % may be the effect or the level left
[39] = system: Hepatitis B virus; test: Antiviral activity against HBV infected in human HepG2.2.15 cells assessed as reduction of 3.5 Kb HBV RNA level at 0.23 to 500 nM by Northern blot anlaysis; format: functional, organism-based; conditions: dose 0.23-500 nM
[40] = system: Hepatitis B virus; test: Antiviral activity against HBV infected in human HepG2.2.15 cells assessed as reduction of 2.4/2.1 Kb HBV RNA level at 0.23 to 500 nM by Northern blot anlaysis; format: functional, organism-based; conditions: dose 0.23-500 nM
[41] = system: Hepatitis B virus; test: Antiviral activity against HBV infected in human HepG2.2.15 cells assessed as reduction of 3.5 Kb HBV RNA level at 500 nM incubated for 4 to 48 hrs by Northern blot anlaysis; format: functional, organism-based; conditions: time 4-48 hrs, TDE = time-dependent effect
[42] = system: Hepatitis B virus; test: Antiviral activity against HBV infected in human HepG2.2.15 cells assessed as reduction of 2.4/2.1 Kb HBV RNA level at 500 nM incubated for 4 to 48 hrs by Northern blot anlaysis; format: functional, organism-based; conditions: time 4-48 hrs, TDE = time-dependent effect
[43] = system: Hepatitis B virus; test: Antiviral activity against HBV infected in human HepG2.2.15 cells assessed as maximum efficacy causing reduction of 3.5 Kb HBV RNA level incubated for 16 hrs by Northern blot anlaysis; format: functional, organism-based
[44] = system: Hepatitis B virus; test: In vivo antiviral activity against AAV encapsidated HBV infected in mouse assessed as reduction in HBsAg level at 3 to 10 mg/kg, po QD for 4 weeks by ELISA; format: functional, organism-based; conditions: dose 3-10 mg/kg
[45] = system: Hepatitis B virus; test: In vivo antiviral activity against AAV encapsidated HBV infected in mouse assessed as reduction in HBeAg level at 3 to 10 mg/kg, po QD for 4 weeks by ELISA; format: functional, organism-based; conditions: dose 3-10 mg/kg
[46] = system: Hepatitis B virus; test: In vivo antiviral activity against AAV encapsidated HBV infected in mouse assessed as reduction in HBV DNA at 3 to 10 mg/kg, po QD for 4 weeks by qPCR method; format: functional, organism-based; conditions: dose 3-10 mg/kg
[47] = system: Hepatitis B virus; test: In vivo antiviral activity against AAV encapsidated HBV infected in mouse assessed as reduction in HBsAg level at 10 mg/kg, po QD for 4 weeks in presence of tenofovir disoproxil fumarate by ELISA; format: functional, organism-based
[48] = system: Hepatitis B virus; test: In vivo antiviral activity against AAV encapsidated HBV infected in mouse assessed as reduction in HBeAg level at 10 mg/kg, po QD for 4 weeks in presence of tenofovir disoproxil fumarate by ELISA; format: functional, organism-based
[49] = system: Hepatitis B virus; test: In vivo antiviral activity against AAV encapsidated HBV infected in mouse assessed as reduction in HBV DNA at 10 mg/kg, po QD for 4 weeks in presence of tenofovir disoproxil fumarate by qPCR method; format: functional, organism-based
[50] = Toxicity in mouse infected with AAV encapsidated HBV assessed as change in body weight at 3 to 10 mg/kg, po QD for 4 weeks; format: organism-based; conditions: in vivo, 672 h, dose 3-10 mg/kg
[51] = Glutathione reactivity assessed as GSH adduct formation; format: ADME
[52] = Toxicity in rat assessed as organ abnormality at 100 to 300 mg/kg, po QD for 14 days; format: organism-based; conditions: in vivo, 336 h, dose 100-300 mg/kg, time 14 day
[53] = Toxicity in rat assessed as mild white myeloid lymphocytopenia of spleen at 1000 mg/kg, po QD for 14 days; format: organism-based; conditions: in vivo, 336 h, time 14 day
[54] = Toxicity in rat assessed as rectal temperature at 300 to 1000 mg/kg, po measured after 1 hrs; format: organism-based; conditions: in vivo, dose 300-1000 mg/kg

COCCCOc1cc2c(cc1OC)-c1cc(=O)c(C(=O)O)cn1[C@H](C(C)(C)C)CO2
EC50 [1]: 2.6 nM
EC50 [2]: 3.9 nM
clearance [3]: 75 mL/min/kg
Vd [4]: 5.8 L/kg
half-life [5]: 2.5 h
Cmax [6]: 1060 nM
bioavailability [7]: 91.6%
clearance [8]: 28 mL/min/kg
Vd [9]: 1.72 L/kg
half-life [10]: 2 h
Cmax [11]: 659 nM
bioavailability [12]: 71.1%
clearance [13]: 4.04 mL/min/kg
Vd [14]: 1.08 L/kg
half-life [15]: 3.39 h
Cmax [16]: 4850 nM
AUC(0-t) [17]: 26.5 µM·h
bioavailability [18]: 93.2%
Papp A→B [19]: 1.4 ×10⁻⁶ cm/s
Papp B→A [20]: 20.4 ×10⁻⁶ cm/s
efflux ratio [21]: 14.1
fraction unbound [22]: 0.44
fraction unbound [23]: 0.414
microsomal CLint [24]: < 7.5 µL/min/mg
microsomal CLint [25]: < 7.5 µL/min/mg
microsomal CLint [26]: < 7.5 µL/min/mg
microsomal CLint [27]: < 7.5 µL/min/mg
microsomal CLint [28]: < 7.5 µL/min/mg
IC50 [29]: > 50000 nM
IC50 [30]: > 50000 nM
IC50 [31]: > 50000 nM
IC50 [32]: > 50000 nM
IC50 [33]: > 50000 nM
IC50 [34]: > 30000 nM
Activity [35]: Not Active
EC50 [36]: 28.2 nM
EC50 [37]: 16 nM
Activity [38]: 50%
Activity [39]: Dose-Dependent Effect
Activity [40]: Dose-Dependent Effect
Activity [41]: Tde
Activity [42]: Tde
Activity [43]: Active
Activity [44]: Dose-Dependent Effect
Activity [45]: Dose-Dependent Effect
Activity [46]: inactive
Activity [47]: inactive
Activity [48]: inactive
Activity [49]: Active
Activity [50]: Non-Toxic
Activity [51]: Not Active
Activity [52]: Non-Toxic
Activity [53]: Toxic
Activity [54]: Non-Toxic
